Source: patent US10421761B2, “Compounds for kinase modulation, and indications therefor” (Plexxikon Inc., priority 2013, dated 2019)
“Also recorded” adds a separate entry of the source. Like-named read-outs stand apart in the source and are kept apart here.

Legend:
[1] = test system: A375 (BRAF V600E) cell line; test: A375 P-ERK inhibition assay (AlphaScreen); assay type: cell-based, human; settings: for IC50: Homo sapiens, A-375, A375_P-ERK
Description: (§1) Phospho-ERK AlphaScreen® assay. To determine the effects of compound treatment upon phosphorylation of ERK1/2, cells were plated in a 96-well dish and treated with an 8-point titration of compound for one hour at 37° C. before lysis. To detect pERK, cell lysates were incubated with streptavidin-coated AlphaScreen® donor beads, anti-mouse IgG AlphaScreen® acceptor beads, a biotinylated anti-ERK1/2 rabbit antibody, and a mouse antibody that recognizes ERK1/2 only when it is phosphorylated on Thr202 and Tyr204. The biotinylated ERK1/2 antibody binds to both the streptavidin-coated AlphaScreen® donor beads and to ERK1/2 (regardless of its phosphorylation state), and the phospho-ERK1/2 antibody binds to the acceptor beads and to ERK1/2 that is phosphorylated at Thr202/Tyr204. An increase in ERK1/2 phosphorylation at Thr202/Tyr204 brings the donor and acceptor AlphaScreen® beads into close proximity, generating a signal that can be quantified on an EnVision reader (Perkin Elmer).

B9 (HRAS Q61L) cell line = test: B9 P-ERK cell activation assay (AlphaScreen); assay type: cell-based, mouse; settings: for EC50: Mus musculus, P-ERK cell activation, B9, numeric bounds, read-out: Cell activity (EC50 μM) B9_pERK
Description: (§2) B9 is a squamous cell carcinoma cell line expressing activated HRAS that was isolated from a DMBA/TPA-induced mouse model of skin carcinogenesis (Stoler, et al. The Journal of Cell Biology, 1993, 122(5), 1103-17). IPC-298 is a human melanoma cell line that expresses activated NRAS (Aubert, et al. International Journal of Cancer, 1993, 54(5), 784-92). To determine whether compounds induce phosphorylated ERK and MEK, cells are plated in a 96-well dish and treated with an 8-point titration of compound for one hour at 37° C. The media is then removed and the cells are incubated with lysis buffer containing protease and phosphatase inhibitors. Phosphorylated ERK and MEK in the resulting lysates is detected using AlphaScreen™ technology. To detect phosphorylated ERK, cell lysates are incubated with streptavidin-coated donor beads, anti-mouse IgG acceptor beads, a biotinylated anti-ERK1/2 rabbit antibody, and a mouse antibody that recognizes ERK1/2 only when it is phosphorylated on Thr202 and Tyr204. The biotinylated ERK1/2 antibody will bind to both the streptavidin-coated donor beads and to ERK1/2 (regardless of its phosphorylation state), and the phospho-ERK1/2 antibody will bind to the acceptor beads and to ERK1/2 that is phosphorylated at Thr202/Tyr204. Excitation of the beads with laser light at 680 nm produces singlet oxygen, which is rapidly quenched unless the beads are in close proximity. When ERK is phosphorylated, both antibodies can bind the same protein, bringing the donor and acceptor beads into close proximity, producing a signal that can be measured at 580 nm. MEK phosphorylation is detected using a similar approach, only with antibodies directed against total MEK1/2 and MEK1/2 that is phosphorylated at Ser217 and Ser221.
as §1

[2] = test system: IPC-298 (NRAS Q61L) cell line; test: IPC-298 P-ERK cell activation assay (AlphaScreen); assay type: cell-based, human; settings: for EC50: Homo sapiens, P-ERK cell activation, IPC-298, read-out: Cell activity (EC50 μM) IPC-298_P-ERK
Description: as §2, §1

BRAF V600E = target: T1, BRAF V600E (Homo sapiens, UniProt P15056, V600E); test: BRAF V600E biochemical kinase activity assay (AlphaScreen, biotin-MEK1 substrate); settings: BRAF V600E biochemical inhibitory activity
T1 construct: purchased Upstate Biotechnology
Description: Compounds to be tested are diluted in dimethyl sulfoxide to a concentration of 0.1 mM. These are serially diluted 15 μL into 30 μL of dimethyl sulfoxide seven times in 96 well plates for a total of 8 dilution points, and for each dilution point 1 μL is added to a well of an assay plate. […] The reaction is started with addition of 10 μL of 200 μM ATP (i.e. final 100 μM ATP). After incubation of the kinase reaction for 45 minutes at room temperature, 5 μL/well of Stop Solution is added (25 mM Hepes pH 7.5, 100 mM EDTA, 0.01% BSA with donor beads (Streptavidin coated beads, Perkin Elmer), acceptor beads (Protein A coated, Perkin Elmer), and anti-phosphor MEK1/2 antibody (CellSignal), each at final concentration 10 μg/mL). The plates are incubated for 3 hours at room temperature and read on Envision reader (Perkin Elmer). Phosphorylation of Mek1 results in binding of the anti-phosphor-MEK1/2antibody and association of the donor and acceptor beads such that signal correlates with kinase activity. The signal versus compound concentration is used to determine the IC50.
The in vitro RAF kinase activities were determined by measuring phosphorylation of a biotinylated substrate peptide as described previously (Tsai, J. et al. Proc Natl Acad Sci USA 105, 3041-3046 (2008)). Compounds of formula (I), e.g., compound A, was also tested against a panel of 287 kinases at concentrations of 1 μM in duplicate. Kinases inhibited by over 50% were followed up by IC50 determination. The 287 kinases represent all major branches of the kinome phylogenetic tree. The inhibition screen of 287 kinases was carried out under contract as complementary panels at Invitrogen (Life Technologies, Wis., USA) SelectScreen™ profiling service, DiscoverX (CA, USA) KINOMEScan™ service, and Reaction Biology Corporation (PA, USA) Kinase HotSpot℠ service.

T1 sequence (P15056 whole entry V600E): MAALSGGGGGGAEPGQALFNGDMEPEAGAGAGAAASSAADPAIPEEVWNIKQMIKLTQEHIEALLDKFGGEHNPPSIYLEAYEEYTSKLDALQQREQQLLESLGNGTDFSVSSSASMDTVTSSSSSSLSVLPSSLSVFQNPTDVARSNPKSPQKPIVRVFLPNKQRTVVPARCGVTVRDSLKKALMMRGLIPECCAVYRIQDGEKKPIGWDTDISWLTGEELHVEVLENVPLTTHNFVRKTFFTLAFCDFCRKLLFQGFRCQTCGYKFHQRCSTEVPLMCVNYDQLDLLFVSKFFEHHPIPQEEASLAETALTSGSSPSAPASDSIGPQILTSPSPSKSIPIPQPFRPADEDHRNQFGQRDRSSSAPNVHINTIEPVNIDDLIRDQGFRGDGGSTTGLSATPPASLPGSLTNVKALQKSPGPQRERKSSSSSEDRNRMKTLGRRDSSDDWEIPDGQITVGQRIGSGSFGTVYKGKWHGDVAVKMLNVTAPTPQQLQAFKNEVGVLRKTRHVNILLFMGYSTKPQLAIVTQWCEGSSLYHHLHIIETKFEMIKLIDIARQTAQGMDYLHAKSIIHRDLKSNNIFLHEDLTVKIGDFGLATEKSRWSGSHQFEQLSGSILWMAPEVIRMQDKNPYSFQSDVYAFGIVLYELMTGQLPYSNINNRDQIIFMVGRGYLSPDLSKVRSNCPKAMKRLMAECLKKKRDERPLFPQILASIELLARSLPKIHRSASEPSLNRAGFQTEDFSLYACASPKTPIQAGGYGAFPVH

Row | Structure (SMILES) | pERK inhibition ([1]; BRAF V600E cell line A375) | pERK activation (B9 (HRAS Q61L) cell line; RAS mutant cell line B9, one hour treatment) | pERK activation ([2]; RAS mutant cell line IPC-298, one hour treatment) | IC50 (BRAF V600E) [µM] | IC50 [1] [µM] | EC50 (B9 (HRAS Q61L) cell line) [µM] | EC50 ([2]; numeric bounds) [µM] | EC50 ([2]; class symbols) [µM]
1 | CCN(C)S(=O)(=O)Nc1cccc(-c2nc(C(C)(C)C)sc2-c2ccnc(N)n2)c1F [P-0352, 5-(2-aminopyrimidin-4-yl)-2-tert-butyl-4-[3-[[ethyl(methyl)sulfamoyl]amino]-2-fluoro-phenyl]thiazole] | preserving the potent inhibitory activity; also recorded: moderate decrease in pERK IC50 | significantly reduced pERK activation; also recorded: markedly reduced pERK activation | significantly reduced pERK activation; also recorded: markedly reduced pERK activation |  |  |  |  | 
2 | CC(C)S(=O)(=O)Nc1ccc(F)c(C(=O)c2c[nH]c3nccc(Cl)c23)c1F [P-2013, N-[3-(4-chloro-1H-pyrrolo[2,3-b]pyridine-3-carbonyl)-2,4-difluoro-phenyl]propane-2-sulfonamide] |  |  |  | 0.0001 to 1 | 0.0001 to 1 |  |  | 
3 | O=C(c1c(F)ccc(NS(=O)(=O)C2CCCC2)c1F)c1c[nH]c2ncncc12 [P-2028, N-[2,4-difluoro-3-(7H-pyrrolo[2,3-d]pyrimidine-5-carbonyl)phenyl]cyclopentanesulfonamide] |  |  |  |  | > 10 | > 10 | > 10 | 
4 | O=C(c1c(F)ccc(NS(=O)(=O)N2CCCC2)c1F)c1c[nH]c2ncncc12 [P-2029, N-[2,4-difluoro-3-(7H-pyrrolo[2,3-d]pyrimidine-5-carbonyl)phenyl]pyrrolidine-1-sulfonamide] |  |  |  |  | 0.0001 to 1 | > 10 | > 10 | 
5 | CC(C)S(=O)(=O)Nc1ccc(F)c(C(=O)c2c[nH]c3ncnc(NCC4CC4)c23)c1F [P-2047, N-[3-[4-(cyclopropylmethylamino)-7H-pyrrolo[2,3-d]pyrimidine-5-carbonyl]-2,4-difluoro-phenyl]propane-2-sulfonamide] |  |  |  | 0.0001 to 1 | 0.0001 to 1 |  |  | 
6 | CN(C)S(=O)(=O)Nc1ccc(F)c(C(=O)c2c[nH]c3ncnc(NCC4CC4)c23)c1F [P-2048, 4-(cyclopropylmethylamino)-5-[3-(dimethylsulfamoylamino)-2,6-difluoro-benzoyl]-7H-pyrrolo[2,3-d]pyrimidine] |  |  |  | 0.0001 to 1 | 0.0001 to 1 |  | > 10 | 
7 | CCCC(C)S(=O)(=O)Nc1ccc(F)c(C(=O)c2c[nH]c3ncnc(NCC4CC4)c23)c1F (stereo not drawn) [P-2051, N-[3-[4-(cyclopropylmethylamino)-7H-pyrrolo[2,3-d]pyrimidine-5-carbonyl]-2,4-difluoro-phenyl]pentane-2-sulfonamide] |  |  |  | 0.0001 to 1 | 0.0001 to 1 |  |  | 
8 | O=C(c1cccc(NS(=O)(=O)N2CCCC2)c1F)c1c[nH]c2ncnc(NCC(F)(F)F)c12 [P-2077, N-[2-fluoro-3-[4-(2,2,2-trifluoroethylamino)-7H-pyrrolo[2,3-d]pyrimidine-5-carbonyl]phenyl]pyrrolidine-1-sulfonamide] |  |  |  | 0.0001 to 1 | 0.0001 to 1 |  | > 10 | 
9 | CC1(C)OCC(CNc2ncnc3[nH]cc(C(=O)c4cccc(NS(=O)(=O)N5CCCC5)c4F)c23)O1 (stereo not drawn) [P-2095, N-[3-[4-[(2,2-dimethyl-1,3-dioxolan-4-yl)methylamino]-7H-pyrrolo[2,3-d]pyrimidine-5-carbonyl]-2-fluoro-phenyl]pyrrolidine-1-sulfonamide] |  |  |  |  | 0.0001 to 1 | > 10 | > 10 | 
10 | O=C(c1cccc(NS(=O)(=O)N2CCCC2)c1F)c1c[nH]c2ncnc(NCCC(F)(F)F)c12 [P-2112, N-[2-fluoro-3-[4-(3,3,3-trifluoropropylamino)-7H-pyrrolo[2,3-d]pyrimidine-5-carbonyl]phenyl]pyrrolidine-1-sulfonamide] |  |  |  | 0.0001 to 1 | 0.0001 to 1 |  | > 10 | 
11 | Cc1nc2c(-c3sc(C(C)(C)C)nc3-c3cccc(NS(=O)(=O)N4CCCC4)c3F)ccnc2[nH]1 [P-2126, N-[3-[2-tert-butyl-5-(2-methyl-3H-imidazo[4,5-b]pyridin-7-yl)thiazol-4-yl]-2-fluoro-phenyl]pyrrolidine-1-sulfonamide] |  |  |  | 0.0001 to 1 | 0.0001 to 1 | > 10 |  | 
12 | COC(=O)N[C@@H](C)CNc1nccc(-c2sc(C(C)(C)C)nc2-c2cccc(NS(=O)(=O)N3CC[C@@H](F)C3)c2F)n1 [P-2138, methyl N-[(1S)-2-[[4-[2-tert-butyl-4-[2-fluoro-3-[[(3R)-3-fluoropyrrolidin-1-yl]sulfonylamino]phenyl]thiazol-5-yl]pyrimidin-2-yl]amino]-1-methyl-ethyl]carbamate] |  |  |  | 0.0001 to 1 | 0.0001 to 1 | > 10 |  | 
13 | COC(=O)N[C@@H](C)CNc1nccc(-c2sc(-c3ccccc3)nc2-c2cccc(NS(=O)(=O)N3CC[C@@H](F)C3)c2F)n1 [P-2152, methyl N-[(1S)-2-[[4-[4-[2-fluoro-3-[[(3R)-3-fluoropyrrolidin-1-yl]sulfonylamino]phenyl]-2-phenyl-thiazol-5-yl]pyrimidin-2-yl]amino]-1-methyl-ethyl]carbamate] |  |  |  | 0.0001 to 1 | 0.0001 to 1 |  |  | 0.0001 to 1
14 | COC(=O)N[C@@H](C)CNc1nccc(-c2nn(C(C)C)cc2-c2cc(Cl)cc(NS(=O)(=O)N3CCCC3)c2F)n1 [P-2160, methyl N-[(1S)-2-[[4-[4-[5-chloro-2-fluoro-3-(pyrrolidin-1-ylsulfonylamino)phenyl]-1-isopropyl-pyrazol-3-yl]pyrimidin-2-yl]amino]-1-methyl-ethyl]carbamate] |  |  |  | 0.0001 to 1 | 0.0001 to 1 |  |  | 0.0001 to 1
15 | CCN(C)S(=O)(=O)Nc1cc(Cl)cc(-c2cn(C(C)C)nc2-c2ccnc(NC[C@H](C)NC(=O)OC)n2)c1F [P-2164, methyl N-[(1S)-2-[[4-[4-[5-chloro-3-[[ethyl(methyl)sulfamoyl]amino]-2-fluoro-phenyl]-1-isopropyl-pyrazol-3-yl]pyrimidin-2-yl]amino]-1-methyl-ethyl]carbamate] |  |  |  | 0.0001 to 1 | 0.0001 to 1 |  | > 10 | 
16 | CN(C)S(=O)(=O)Nc1cc(Cl)cc(C(=O)c2c[nH]c3ncc(-c4cnc(C5CC5)nc4)cc23)c1F [P-2175, 3-[5-chloro-3-(dimethylsulfamoylamino)-2-fluoro-benzoyl]-5-(2-cyclopropylpyrimidin-5-yl)-1H-pyrrolo[2,3-b]pyridine] |  |  |  | 0.0001 to 1 | 0.0001 to 1 |  | > 10 | 
17 | Cc1cc(NS(=O)(=O)N2CC[C@@H](F)C2)c(F)c(C(=O)c2c[nH]c3ncc(-c4cnc(C5CC5)nc4)cc23)c1 [P-2182, (3R)-N-[3-[5-(2-cyclopropylpyrimidin-5-yl)-1H-pyrrolo[2,3-b]pyridine-3-carbonyl]-2-fluoro-5-methyl-phenyl]-3-fluoro-pyrrolidine-1-sulfonamide] |  |  |  | 0.0001 to 1 |  | > 10 | > 10 | 
